{"source": "patent US5952298A", "about": "“Cryptophycins” (priority 1995, dated 1999)", "key": {"Human Sm Cell L. DMS273": {"tested_on": "Human Sm Cell L. DMS273", "assay": "In vivo activity, SC DMS273 tumor", "conditions": "Exp 1596; SC Human Sm Cell L. DMS273 SCID; 6 IV inj.; 7.3 mg/kg total dose", "quoted_text": "(§1) Gross log kill is defmed as T-C/3.2 Td where T is the median time in days for the tumors of the treated group to reach 750 mg, C is the median time in days for the tumors of the control group to reach 750 mg, and Td is the tumor volume doubling time. […] An activity rating of +++ to ++++, which is indicative of clinical activity, is needed to effect partial or complete regression of 100-300 mg size masses of most transplanted solid tumors of mice."}, "[1]": {"tested_on": "Mam 16/C (taxol-sensitive mammary #16/C)", "assay": "In vivo activity, SC Mam 16/C tumor", "conditions": "Exp 1720, 5 IV inj., 13.2 mg/kg total dose"}, "[2]": {"tested_on": "Mam 16/Taxol (taxol-resistant mammary #16/C/RP)", "assay": "In vivo activity, SC Mam 16/Taxol tumor", "conditions": "Exp 1733, 5 IV inj., 16.5 mg/kg total dose", "quoted_text": "as §1"}, "[3]": {"tested_on": "murine leukemia (L1210 or P388), murine solid tumor, human solid tumor and low malignancy fibroblast (LML) cells"}, "[4]": {"tested_on": "murine and human tumors implanted in mice", "quoted_text": "as §1"}, "[5]": {"tested_on": "LoVo (human colon carcinoma)", "assay": "Cytotoxicity against LoVo cell line", "type": "cell-based"}, "strains of Cryptococcus": {"tested_on": "strains of Cryptococcus", "conditions": "found by researchers at Merck; cited from earlier work"}, "M17/0 (Adr. Sens.)": {"tested_on": "M17/0 (Adr. Sens.)", "assay": "In vivo activity, SC M17/0 tumor", "conditions": "Exp 1833; SC M17/0 (Adr. Sens.); 5 IV inj.; 5.4 mg/kg total dose", "quoted_text": "as §1"}, "[6]": {"tested_on": "colon adenocarcinoma #38 (Colon 38, C38)", "conditions": "Exp 1560; SC Colon 38; 8 IV inj.; 10.3 mg/kg total dose"}, "MX-1 Human Breast": {"tested_on": "MX-1 Human Breast", "assay": "In vivo activity, SC MX-1 tumor", "conditions": "Exp 1806; SC MX-1 Human Breast; 8 IV inj.; 12 mg/kg total dose", "quoted_text": "as §1"}, "[7]": {"tested_on": "KB (human nasopharyngeal carcinoma)", "assay": "Cytotoxicity against KB cell line", "type": "cell-based"}, "LNCaP Human Prostate": {"tested_on": "LNCaP Human Prostate", "assay": "In vivo activity, SC LNCaP tumor", "conditions": "Exp 1841, 6 IV inj., 6.5 mg/kg total dose", "quoted_text": "Gross log kill is defmed as T-C/3.2 Td where T is the median time in days for the tumors of the treated group to reach 750 mg, C is the median time in days for the tumors of the control group to reach 750 mg, and Td is the tumor volume doubling time."}, "[8]": {"tested_on": "colon adenocarcinoma #51 (Colon 51)", "assay": "In vivo activity, SC Colon 51 tumor", "conditions": "Exp 1636, 7 IV inj., 28.1 mg/kg total dose"}, "H125 Human Adenosq-lung": {"tested_on": "H125 Human Adenosq-lung", "conditions": "Exp 1823; SC H125 Human Adenosq-lung; 8 IV inj.; 14.4 mg/kg total dose", "quoted_text": "as §1"}, "[9]": {"tested_on": "SKOV3 (human ovarian carcinoma)", "assay": "Cytotoxicity against SKOV3 cell line (Table 2)", "type": "cell-based"}, "[10]": {"tested_on": "A-10 rat aortic smooth muscle cells", "type": "cell-based", "method": "A-10 cells were grown to near-confluency on glass coverslips in BME/10% FBS. Compounds in PBS were added to the indicated final concentrations and cells were incubated for an additional 24 hours. For the staining of microtubules and intermediate filaments, the cells were fixed with cold methanol and incubated with PBS containing 10% calf serum to block nonspecific binding sites. Cells were then incubated at 37° C. for 60 min with either monoclonal anti-β-tubulin or with monoclonal anti-vimentin at dilutions recommended by the manufacturer. Bound primary antibodies were subsequently visualized by a 45-minute incubation with fluorescein-conjugated rabbit antimouse IgG. The coverslips were mounted on microscope slides and the fluorescence patterns were examined and photographed using a Zeiss Photomicroscope Ill equipped with epifluorescence optics for fluorescein. […] PBS containing 100 nM TRITC-phalloidin was then added and the mixture was allowed to incubate for 45 min at 37° C. The cells were washed rapidly three times with PBS before the coverslips were mounted and immediately photographed as described above.\nAfter 24 hours, microtubules and vimentin intermediate filaments were visualized by indirect immunofluorescence and microfilaments were stained using TRITC-phalloidin. The morphological effects of each drug were examined. […] Vimentin intermediate filaments were also evenly distributed throughout the cytoplasm, while bundles of microfilaments were concentrated along the major axis of the cell."}, "[11]": {"tested_on": "tumor (leukemia) and normal cell (CFUGM) lines", "assay": "Valeriote assay", "type": "cell-based", "conditions": "5 μg/disk", "quoted_text": "^b N = nonselective towards tumor (leukemia) and normal cell (CFUGM)\nLL = lymphocytic leukemia selective (ZL1210 - ZCFUM ≥ 25\nML = acute myelogenous leukemia (AML) selective (ZAML - ZCFUGM"}, "[12]": {"tested_on": "Human ovarian carcinoma cells (SKOV3)", "assay": "SKOV3 cell proliferation (SRB staining, Example 10)", "type": "cell-based", "conditions": "SKOV3 treated 24 hours with IC50 dose, then drug-free medium"}, "[13]": {"conditions": "24 hours, 2 μM cytochalasin B, 100 nM vinblastine or 10 nM cryptophycin compounds"}}, "note": "“Also recorded” adds a separate entry of the source. Read-outs that look alike come from different tables or passages of the source."}
{"molecule": "COc1ccc(C[C@H]2NC(=O)/C=C/C[C@@H]([C@H](C)[C@H]3O[C@@H]3c3ccccc3)OC(=O)[C@H](CC(C)C)OC(=O)[C@H](C)CNC2=O)cc1Cl", "note": "[Cryptophycin 1]", "values": [{"measurement": "% Body Wt. Loss at Nadir", "setting": "Human Sm Cell L. DMS273", "value": 0, "unit": "%"}, {"measurement": "Cures", "setting": "Human Sm Cell L. DMS273", "value": "0/5"}, {"measurement": "Log Kill", "setting": "Human Sm Cell L. DMS273", "value": "< 1"}, {"measurement": "T/C", "setting": "Human Sm Cell L. DMS273", "value": 27, "unit": "%"}, {"measurement": "% Body Wt. Loss at Nadir", "setting": "[1]", "value": -1, "unit": "%"}, {"measurement": "Cures", "setting": "[1]", "value": "0/5"}, {"measurement": "Log Kill", "setting": "[1]", "value": 1.4}, {"measurement": "T/C", "setting": "[1]", "value": 5, "unit": "%"}, {"measurement": "% Body Wt. Loss at Nadir", "setting": "[2]", "value": 0, "unit": "%"}, {"measurement": "Cures", "setting": "[2]", "value": "0/4"}, {"measurement": "Log Kill", "setting": "[2]", "value": 1.8}, {"measurement": "T/C", "setting": "[2]", "value": 2, "unit": "%"}, {"measurement": "Differential in Zone Units, Corbett Assay", "setting": "[3]; 12.5 μg/disk", "value": "> 400", "unit": "zone units"}, {"measurement": "Type of Cytotoxicity, Corbett Assay", "setting": "[3]; 12.5 μg/disk", "value": "E/T"}, {"measurement": "in vivo activity (in words)", "setting": "[4]", "value": "active against a broad spectrum of murine and human tumors implanted in mice"}, {"measurement": "cause of lethal toxicity observed during testing", "setting": "[4]; mice", "value": "leucopenia"}, {"measurement": "tumor burden T/C (mean tumor burden in treated animals/mean tumor burden untreated animals)", "setting": "[4]; text summary over the tumors named in the sentence", "value": "less than 10%"}, {"measurement": "LoVo IC50", "setting": "[5]; Table 1", "value": 0.003, "unit": "ng/mL"}, {"measurement": "LoVo IC50", "setting": "[5]; Table 2", "value": 0.001, "unit": "ng/mL"}, {"measurement": "antifungal activity", "setting": "strains of Cryptococcus", "value": "very active against strains of Cryptococcus"}, {"measurement": "% Body Wt. Loss at Nadir", "setting": "M17/0 (Adr. Sens.)", "value": -10, "unit": "%"}, {"measurement": "Cures", "setting": "M17/0 (Adr. Sens.)", "value": "0/5"}, {"measurement": "Log Kill", "setting": "M17/0 (Adr. Sens.)", "value": "< 1"}, {"measurement": "T/C", "setting": "M17/0 (Adr. Sens.)", "value": 23, "unit": "%"}, {"measurement": "% Body Wt. Loss at Nadir", "setting": "[6]", "value": "Gain"}, {"measurement": "Cures", "setting": "[6]", "value": "0/5"}, {"measurement": "Log Kill", "setting": "[6]", "value": 1.5}, {"measurement": "T/C", "setting": "[6]", "value": 6, "unit": "%"}, {"measurement": "% Body Wt. Loss at Nadir", "setting": "MX-1 Human Breast", "value": -3, "unit": "%"}, {"measurement": "Cures", "setting": "MX-1 Human Breast", "value": "0/5"}, {"measurement": "Log Kill", "setting": "MX-1 Human Breast", "value": 2.0}, {"measurement": "T/C", "setting": "MX-1 Human Breast", "value": 3, "unit": "%"}, {"measurement": "KB IC50", "setting": "[7]; Table 1", "value": 0.005, "unit": "ng/mL"}, {"measurement": "KB IC50", "setting": "[7]; Table 2", "value": 0.0025, "unit": "ng/mL"}, {"measurement": "% Body Wt. Loss at Nadir", "setting": "LNCaP Human Prostate", "value": -6, "unit": "%"}, {"measurement": "Cures", "setting": "LNCaP Human Prostate", "value": "0/5"}, {"measurement": "Log Kill", "setting": "LNCaP Human Prostate", "value": "< 1"}, {"measurement": "T/C", "setting": "LNCaP Human Prostate", "value": 26, "unit": "%"}, {"measurement": "% Body Wt. Loss at Nadir", "setting": "[8]", "value": -11, "unit": "%"}, {"measurement": "Cures", "setting": "[8]", "value": "0/5"}, {"measurement": "Log Kill", "setting": "[8]", "value": 1.3}, {"measurement": "T/C", "setting": "[8]", "value": 7, "unit": "%"}, {"measurement": "% Body Wt. Loss at Nadir", "setting": "H125 Human Adenosq-lung", "value": -15, "unit": "%"}, {"measurement": "Cures", "setting": "H125 Human Adenosq-lung", "value": "0/5"}, {"measurement": "Log Kill", "setting": "H125 Human Adenosq-lung", "value": 1.1}, {"measurement": "T/C", "setting": "H125 Human Adenosq-lung", "value": 9, "unit": "%"}, {"measurement": "dead (animals)", "setting": "H125 Human Adenosq-lung", "value": "1/5"}, {"measurement": "SKOV3 IC50", "setting": "[9]", "value": 0.026, "unit": "ng/mL"}]}
{"molecule": "C=C1[C@@H](C)[C@H]2[C@H](Cc3ccccc3)NC(=O)[C@]23OC(=O)/C=C/[C@H](O)CCC[C@@H](C)C/C=C/[C@H]3[C@@H]1O", "note": "[Cytochalasin B, cytochalasin B]", "values": [{"measurement": "effect on microfilaments", "setting": "[10]; 2 μM cytochalasin B, 24 hours", "value": "complete depolymerization of microfilaments"}, {"measurement": "effect on microtubules", "setting": "[10]; [13]", "value": "did not affect the distribution of either microtubules or intermediate filaments"}]}
{"molecule": "COc1cc([C@@H]2c3cc4c(cc3[C@@H](O[C@@H]3O[C@@H]5CO[C@@H](C)O[C@H]5[C@H](O)[C@H]3O)[C@H]3COC(=O)[C@H]23)OCO4)cc(OC)c1O", "note": "[VP-16, etoposide, reference compound]", "values": [{"measurement": "Differential in Zone Units, Valeriote Assay", "setting": "[11]", "value": 260, "unit": "zone units"}, {"measurement": "Differential in Zone Units, Corbett Assay", "setting": "[3]; 5 μg/disk", "value": 350, "unit": "zone units"}]}
{"molecule": "CC(=O)O[C@H]1C(=O)[C@@]2(C)[C@H]([C@H](OC(=O)c3ccccc3)[C@]3(O)C[C@H](OC(=O)[C@H](O)[C@@H](NC(=O)c4ccccc4)c4ccccc4)C(C)=C1C3(C)C)[C@]1(OC(C)=O)CO[C@@H]1C[C@@H]2O", "note": "[taxol, reference compound]", "values": [{"measurement": "Differential in Zone Units, Corbett Assay", "setting": "[3]; 0.2 μg/disk", "value": "≥ 400", "unit": "zone units"}, {"measurement": "Type of Cytotoxicity, Corbett Assay", "setting": "[3]; 0.2 μg/disk", "value": "M/H/T"}, {"measurement": "microtubule organization in taxol-treated cells", "setting": "[10]; 10 μM taxol", "value": "extensively bundled"}]}
{"molecule": "CC[C@]1(O)C[C@@H]2CN(CCc3c([nH]c4ccccc34)[C@@](C(=O)OC)(c3cc4c(cc3OC)N(C)[C@H]3[C@@](O)(C(=O)OC)[C@H](OC(C)=O)[C@]5(CC)C=CCN6CC[C@]43[C@@H]65)C2)C1", "note": "[vinblastine]", "values": [{"measurement": "increase in cell number in the 24 hours following removal of the drug", "setting": "[12]", "value": "approximately 3 fold"}, {"measurement": "microtubule depolymerization after taxol pretreatment", "setting": "[10]; 3 hours 10 μM taxol, then 100 nM vinblastine or 10 nM cryptophycin compound, 24 hours", "value": "pretreatment with taxol prevented microtubule depolymerization"}, {"measurement": "effect on vimentin intermediate filaments", "setting": "[10]; 24 hours, 100 nM vinblastine or 10 nM cryptophycin compounds", "value": "vimentin intermediate filaments collapsed"}, {"measurement": "effect on microtubules", "setting": "[10]; [13]", "value": "marked depletion of microtubules; also recorded: complete depolymerization of microtubules"}, {"measurement": "reversibility of microtubule depolymerization after removal of the drug", "setting": "[10]; 24 hr treatment (100 nM vinblastine or 10 nM cryptophycins), then 1 hour or 24 hours drug-free medium", "value": "complete morphological recovery by 24 hour"}]}
